{"source": "patent US20050042209A1", "about": "“MUC1 extracellular domain and cancer treatment compositions and methods derived therefrom” (priority 2000, published 2005)", "key": {"MUC1 [1]": {"system": "MUC1", "test": "Western blot of MUC1 after siRNA transfection", "assay_type": "cell-based, human", "settings": "siRNA 0.2 micromolar", "description": "Cell Culture: Human MCF-7 breast cancer cells were maintained in DMEM supplemented with 10% heat inactivated fetal bovine serum (FBS) and 1% penicillin-streptomycin mixture. Human A549 non-small cell lung cancer cells were maintained in RPMI1640 medium supplemented with 10% FBS and 1% penicillin-streptomycin mixture.\n(§1) siRNAs: Five different double stranded anti-MUC1 siRNAs were designed: one against the target sequence SEQ ID NO: 63, i.e., […], with sense and antisense strands as shown in SEQ ID NO: 64 and SEQ ID NO: 65 respectively (hereinafter siRNA #1); one against the target sequence SEQ ID NO: 42, i.e., […], with sense and antisense strands as shown in SEQ ID NO: 43 and SEQ ID NO: 44 respectively (hereinafter siRNA #2); one against the target sequence SEQ ID NO: 21, i.e., […], with sense and antisense strands as shown in SEQ ID NO: 22 and SEQ ID NO: 23 respectively (hereinafter siRNA #3); one against the target sequence SEQ ID NO: 66, i.e., […], with sense and antisense strands as shown by SEQ ID NO: 67 and SEQ ID NO: 68 respectively (hereinafter siRNA #4); and one against target sequence SEQ ID NO: 69, i.e., […], with sense and antisense strands as shown by SEQ ID NO: 70 and SEQ ID NO: 71 respectively (hereinafter siRNA #5). A control siRNA was designed against the scrambled target SEQ ID NO: 72 with sense and antisense strands as shown by SEQ ID NO: 73 and SEQ ID NO: 74 respectively. Each RNA sense oligonucleotide (50 μM) was combined with equal volume of antisense oligonucleotide (50 μM) in an annealing buffer (20 mM KCl, 6 mM HEPES-KOH, pH 7.5, 0.2 mM MgCl2). The solution was incubated for 1 min at 90° C. to denature secondary structure, and placed at 37° C. for 1 hour to anneal the complementary strands. The subsequent double stranded RNAs were used as the anti-MUC1 siRNA.\nTransfection: Cells (1-3×10^5 cells/well) were plated in 6-well plates in growth medium without antibiotics, and incubated overnight. After washing cells once with Opti-MEM I (Invitrogen), 800 μL of fresh Opti-MEM I and 200 μL of the Reagent (Invitrogen) were added to the cultured cells. Four hours later, 300 μL of FBS was added to the cultured cells.\nWestern Blot Analysis: Cell were passed a day before transfection. MUC1 siRNA (0.2 micromolar) was added with oligofectamine to cells in 0% FBS. Four hours later serum was added to a final concentration of 10%. After various time intervals (48 h, 72 h and 96 h), cells were washed and total cell lysates were prepared. Proteins were separated from cell lysates by SDS-PAGE, transferred to nitrocellulose and analyzed by immunoblotting with anti-DF3 antibodies."}, "MUC1 RNA": {"system": "MUC1 RNA", "test": "RT-PCR of MUC1 RNA after siRNA transfection", "assay_type": "cell-based, human", "settings": "FIG. 5", "description": "as §1\nRT-PCR: Total RNA was extracted and purified from cultured cells using RNAzol B according the manufacturer's instructions. The RNA was quantified by determining absorbance at 260 nm. One μg of total RNA from each sample was reverse transcribed into cDNA using Thermoscript reverse transcriptase (Invitrogen) in a volume of 20 μL. The cDNA product was amplified by PCR using Platinum Taq DNA polymerase (Invitrogen) and specific primers for MUC1 and beta-actin as an internal control. The sequences of primers used were as follows; • MUC1 (forward, 5′-[…]-3′; reverse, 5′-[…]-3′) and beta-actin (forward, 5′-[…]-3′; reverse, 5′-[…]-3′).\nThe reaction was performed using the following program: 94° C. for 2 min, 29 cycles (25 cycles for beta-actin) at 94° C. for 2 min, 48° C. for 1 min, 72° C. for 30s and then additional extension step of 72° C. for 10 min. The PCR products were separated on a 2% agarose gel, stained with ethidium bromide and photographed under UV light."}, "A549 cells [2]": {"system": "A549 cells", "test": "Proliferation of A549 cells", "assay_type": "cell-based, human", "settings": "transfection of siRNA; FIG. 8", "method": "(§2) Cell culture: Human non-small cell lung cancer A549 cells were grown in RPMI1640 medium supplemented with 10% fetal bovine serum (FBS), 100 units/ml of penicillin and 100 μg/ml of streptomycin, respectively.\nTransfection with siRNA: Cells (3×10^5 cells/well) were plated in 6-well plates in growth medium without antibiotics, and incubated overnight. Cells were then transfected with MUC1 siRNAs, siRNA #1, i.e., one against the target sequence SEQ ID NO: 63, i.e., […] with sense and antisense strands as shown in SEQ ID NO: 64 and SEQ ID NO: 65 respectively; and siRNA #2, i.e., one against the target sequence SEQ ID NO: 42, i.e., […] with sense and antisense strands as shown in SEQ ID NO: 43 and SEQ ID NO: 44 respectively, and one control siRNA directed towards the non-specific gene target […] using Oligofectamine reagent (Invitrogen) according to the manufacturer's instructions. After 24 hr of transfection, the medium was changed to complete medium containing antibiotics.\n(§3) Treatment of Cells with cisplatinum (CDDP): At 72 hr post transfection of siRNAs, 10 μM CDDP was added to the cells in fresh culture medium. After 48 hr of CDDP exposure cells were trypsinized and analyzed for MUC1 expression and apoptosis as described below."}, "MUC1 [3]": {"system": "MUC1", "test": "MUC1 induction by oxidative and genotoxic stress (immunoblot)", "method": "To determine whether MUC1 is induced in response to oxidative stress, MCF-7 cells were treated with hydrogen peroxide. Cell lysates were analyzed by immunoblotting with anti-DF3/MUC1 antibody. Lysates were prepared by suspending MCF-7 cells in lysis buffer (50 mM Tris, pH 7.6, 150 mM NaCl, 1 mM PMSF, 3 mM NaF, 1 mM sodium vandate, 1 mM DTT with protease inhibitors and either 1% NP-40 or 1% Brij-96) for 30 min. on ice. Lysates were cleared by centifugation and equal amounts of proteins were resolved by SDS-PAGE. Proteins were then transferred to nitrocellulose filters, blocked by incubation in 5% non-fat dry milk in PBS with 0.05% Tween-20 and probed with anti-MUC1 antibody (Pandey et al., 1995). Anti-actin was used as a control.\nSimilar studies were performed with genotoxic agents."}, "HeLa cells": {"system": "HeLa cells", "settings": "HeLa/MUC1 vs HeLa/V, FIG. 4", "quoted_text": "DNA content was assessed by staining ethanol-fixed cells with propidium iodide and monitoring by FACScan (Beckton Dickerson). Numbers of cells with sub-G1 DNA content were determined with a MODFIT LT program, (Verity Software House, Topsham, Me.) (Yuan et al., 1997). The cells were analyzed for induction of sub-G1 DNA by flow cytometry as a marker of apoptosis.\nThe induction of apoptosis in cells treated with 0.01 mM taxol for 20 hr was assessed by measuring sub-G1 DNA content of HeLa cells expressing empty vector or MUC1."}, "MUC1 DF3 antigen": {"system": "MUC1 DF3 antigen", "test": "DF3 antigen levels by immunoblot after NM-3", "assay_type": "cell-based, human", "method": "MCF-7 cells were treated with NM-3 (2-(8-hydroxy-6-methoxy-1-oxo-1 H-2-benzopyran-3-yl)propionic acid) at 100-400 μg/ml for 48 hr. DF3 antigen levels were visualized by immunoblot analysis with DF3 MAb (Kufe, U.S. Pat. No. 5,506,343, herein incorporated by reference).\nA decrease in the intracellular levels of DF3 antigen of NM-3 treated cells relative to non-treated cells was observed. […] To determine whether NM-3 impaired the extracellular localization of the MUC1 DF3 antigen, the antigen levels in cell culture medium supernatants and on MCF-7 cells after NM-3 treatment were investigated. The levels of DF3 antigen were reduced in both localizations."}, "[4]": {"system": "epidermal growth factor receptor (EGF-R)", "test": "EGF-R expression after NM-3", "assay_type": "cell-based, human", "settings": "MCF-7, ZR-75-1 and BT-20 cell lines", "method": "To determine whether NM-3 inhibits the expression of cellular surface proteins as well, the level of epidermal growth factor receptor (EGF-R) expression after NM-3 treatment was tested on MCF-7, ZR-75-1 and BT-20 cell lines."}, "MUC1 [5]": {"system": "MUC1", "quoted_text": "Cell Culture: Human MCF-7 breast carcinoma and HeLa cervical carcinoma cella (obtained form the ATCC, Manassas, Va.) were grown in DMEM (high glucose; Mediatech, Cellgrow) supplemented with 10% heat-inactivated fetal calf serum (FCS) and 2 mM L-glutamate.\nImmunoblot analysis: Cells were lysed in ice-cold lysis buffer (20 mM Tris-HCl, pH 8.0, 150 mM NaCl, 1% Triton-X-100, 1 mM phenylsulfonyl fluoride, 1 mM DTT, 10 μgm/ml aprotinin) for 30 min. Lysates were cleared by centrifugation for 20 min. at 4° C. as described (Yin et al, 2001). Proteins were separated by SDS-PAGE, transferred to nitrocellulose and probed with anti-DF3/MUC1 (Kufe, U.S. Pat. No. 5,506,34) or anti-β-actin (Sigma). The antigen-antibody complexes were visualized by enhanced chemiluminescence (ECL; Amersham Life Sciences).\nCDDO downregulates MUC1 expression: MUC1-positive cells were treated with CDDO at concentrations of 1, 3 and 5 μM."}, "intracellular ROS": {"system": "intracellular ROS", "settings": "NAC pretreatment", "quoted_text": "Measurement of ROS levels: Cells were incubated with 10 mM DCF-DA Sigma) for 15 min. at 37° C. to assess ROS-mediated oxidation of the fluorescent compound DCF (LeBel et al., 1992). Fluorescence of oxidized DCF was measured at an excitation wavelength of 480 nm and an emission wavelength of 525 nm using a flow cytometer (Beckton Dickerson, Lincoln Park, N.J.).\nAs a control, cells were incubated with NAC, a scavenger of ROS."}, "A549 cells [6]": {"system": "A549 cells", "test": "Apoptosis assay (Annexin V-FITC/PI) in A549 cells", "assay_type": "cell-based, human", "settings": "FIG. 7", "method": "as §2\nTransfection with siRNA: Cells (3×10^5 cells/well) were plated in 6-well plates in growth medium without antibiotics, and incubated overnight. […]\nas §3\nApoptosis assay.: A549 cells were initially stained for MUC1 expression using the DF3 monoclonal antibody (Kufe, U.S. Pat. No. 5,506,343, herein incorporated by reference). […] The amount of DF3 staining was then measured using a biotinylated goat anti-mouse secondary antibody (diluted 1:200 in staining buffer) and streptavidin-conjugated phycoerythrin (diluted 1:50 in staining buffer). After fluorescent staining for MUC1 expression, apoptosis was determined by staining cells with Annexin V-FITC and propidium iodide (PI). […] Using a flow cytometer, (EPICS XL-MCL, Coulter Corp), the amount of MUC1 expressing cells were determined using the FL2 detector, annexin V-FITC staining was measured in the FL1 detector and propidium iodide staining was measured in the FL3 detector. […]"}}, "note": "d = 2'-deoxy (DNA); r = 2'-OH (RNA)"}
{"molecule": "siRNA #1: double stranded anti-MUC1 siRNA, target SEQ ID NO: 63, sense SEQ ID NO: 64, antisense SEQ ID NO: 65 (sense GGGGGUUUUCUGGGCCUCUTT; antisense AGAGGCCCAGAAAACCCCCTT; sugars from the 5' end r19 d2, backbone not given here)", "values": [{"measurement": "MUC1 expression at the protein level (immunoblot)", "setting": "MUC1 [1]; A549 cells, FIG. 5", "result": "downregulate MUC1 expression"}, {"measurement": "MUC1 expression at the protein level (immunoblot)", "setting": "MUC1 [1]; MCF-7 cells, FIG. 5, FIG. 6", "result": "downregulate MUC1 expression"}, {"measurement": "MUC1 expression at the RNA level (RT-PCR)", "setting": "MUC1 RNA; A549 cells", "result": "downregulate MUC1 expression"}, {"measurement": "MUC1 expression at the RNA level (RT-PCR)", "setting": "MUC1 RNA; MCF-7 cells", "result": "downregulate MUC1 expression"}, {"measurement": "proliferation of A549 cells", "setting": "A549 cells [2]", "result": "decreased the proliferation"}]}
{"molecule": "CC(=O)O[C@H]1C(=O)[C@@]2(C)[C@H]([C@H](OC(=O)c3ccccc3)[C@]3(O)C[C@H](OC(=O)[C@H](O)[C@@H](NC(=O)c4ccccc4)c4ccccc4)C(C)=C1C3(C)C)[C@]1(OC(C)=O)CO[C@@H]1C[C@@H]2O", "note": "[taxol]", "values": [{"measurement": "MUC1 induction by diverse cytotoxic agents", "setting": "MUC1 [3]; available evidence, cells not given", "result": "induced"}, {"measurement": "induced apoptosis (sub-G1 DNA), effect of MUC1", "setting": "HeLa cells; 0.01 mM taxol for 20 hr", "result": "inhibited by MUC1 expression"}]}
{"molecule": "COc1cc(O)c2c(=O)oc(C(C)C(=O)O)cc2c1", "note": "(centres unmarked) [NM-3, 2-(8-hydroxy-6-methoxy-1-oxo-1 H-2-benzopyran-3-yl)propionic acid]", "values": [{"measurement": "levels of DF3 antigen in cell culture medium supernatants and on MCF-7 cells", "setting": "MUC1 DF3 antigen; MCF-7 cells after NM-3 treatment", "result": "reduced"}, {"measurement": "intracellular levels of DF3 antigen", "setting": "MUC1 DF3 antigen; MCF-7 cells, 100-400 μg/ml for 48 hr, relative to non-treated cells", "result": "decrease"}, {"measurement": "EGF-R expression", "setting": "[4]", "result": "no detectable changes"}]}
{"molecule": "OO", "note": "[hydrogen peroxide]", "values": [{"measurement": "MUC1 expression (immunoblot)", "setting": "MUC1 [3]; MCF-7 cells", "result": "rapidly and transiently induced"}, {"measurement": "apoptotic response (sub-G1 DNA), effect of MUC1", "setting": "HeLa cells; 1 mM hydrogen peroxide for 1 hr", "result": "MUC1 inhibits the apoptotic response"}, {"measurement": "MUC1 expression", "setting": "MUC1 [5]; 0.1 mM H2O2", "result": "downregulation of MUC1"}]}
{"molecule": "CC(=O)N[C@@H](CS)C(=O)O", "note": "[NAC, N-acetylcysteine]", "values": [{"measurement": "CDDO-induced ROS production", "setting": "intracellular ROS", "result": "abrogation"}, {"measurement": "CDDO-, CDDO-Me-, CDDO-Im- and CDDO-Pr-Im-induced decreases in MUC1", "setting": "MUC1 [5]; cells treated with antioxidant", "result": "blocked"}, {"measurement": "H2O2-induced downregulation of MUC1", "setting": "MUC1 [5]; with NAC", "result": "reversed"}]}
{"molecule": "siRNA #2: double stranded anti-MUC1 siRNA, target SEQ ID NO: 42, sense SEQ ID NO: 43, antisense SEQ ID NO: 44 (sense GGUACCAUCAAUGUCCACGTT; antisense CGUGGACAUUGAUGGUACCTT; sugars from the 5' end r19 d2, backbone not given here)", "values": [{"measurement": "percentage of apoptotic cells", "setting": "A549 cells [6]; A549 cells transfected with siRNA, relative to controls", "result": "increase"}, {"measurement": "percentage of apoptotic cells, combination", "setting": "A549 cells [6]; A549 cells, siRNA 72 hr then 10 μM CDDP 48 hr", "result": "more than additively enhances"}, {"measurement": "MUC1 expression at the protein level (immunoblot)", "setting": "MUC1 [1]; A549 cells, FIG. 5", "result": "downregulate MUC1 expression"}, {"measurement": "MUC1 expression at the protein level (immunoblot)", "setting": "MUC1 [1]; MCF-7 cells, FIG. 5, FIG. 6", "result": "downregulate MUC1 expression"}, {"measurement": "MUC1 expression at the RNA level (RT-PCR)", "setting": "MUC1 RNA; A549 cells", "result": "downregulate MUC1 expression"}, {"measurement": "MUC1 expression at the RNA level (RT-PCR)", "setting": "MUC1 RNA; MCF-7 cells", "result": "downregulate MUC1 expression"}, {"measurement": "proliferation of A549 cells", "setting": "A549 cells [2]", "result": "decreased the proliferation"}]}
